Source: patent US20120095055A1, “HEXAHYDROCYCLOPENTYL[f]INDAZOLE 5-HYDROXYMETHYL ETHANOLS AND DERIVATIVES THEREOF AS SELECTIVE GLUCOCORTICOID RECEPTOR MODULATORS” (Merck Sharp & Dohme, Corp., priority 2009, published 2012)
pKi: −log10 of the molar value.

Each compound was assayed against T1, glucocorticoid receptor (GR) (Homo sapiens, UniProt P04150) (assay: GR Ligand Binding Assay (3H-dexamethasone displacement, HeLa cell lysate)). Conditions: 3H-DEX trace, DEX as reference, read-out: GR BIND Ki.
T1 construct: endogenous in cells; host or cells: HeLa (ATCC) cell lysate supernatant
T1 sequence (P04150 1-777): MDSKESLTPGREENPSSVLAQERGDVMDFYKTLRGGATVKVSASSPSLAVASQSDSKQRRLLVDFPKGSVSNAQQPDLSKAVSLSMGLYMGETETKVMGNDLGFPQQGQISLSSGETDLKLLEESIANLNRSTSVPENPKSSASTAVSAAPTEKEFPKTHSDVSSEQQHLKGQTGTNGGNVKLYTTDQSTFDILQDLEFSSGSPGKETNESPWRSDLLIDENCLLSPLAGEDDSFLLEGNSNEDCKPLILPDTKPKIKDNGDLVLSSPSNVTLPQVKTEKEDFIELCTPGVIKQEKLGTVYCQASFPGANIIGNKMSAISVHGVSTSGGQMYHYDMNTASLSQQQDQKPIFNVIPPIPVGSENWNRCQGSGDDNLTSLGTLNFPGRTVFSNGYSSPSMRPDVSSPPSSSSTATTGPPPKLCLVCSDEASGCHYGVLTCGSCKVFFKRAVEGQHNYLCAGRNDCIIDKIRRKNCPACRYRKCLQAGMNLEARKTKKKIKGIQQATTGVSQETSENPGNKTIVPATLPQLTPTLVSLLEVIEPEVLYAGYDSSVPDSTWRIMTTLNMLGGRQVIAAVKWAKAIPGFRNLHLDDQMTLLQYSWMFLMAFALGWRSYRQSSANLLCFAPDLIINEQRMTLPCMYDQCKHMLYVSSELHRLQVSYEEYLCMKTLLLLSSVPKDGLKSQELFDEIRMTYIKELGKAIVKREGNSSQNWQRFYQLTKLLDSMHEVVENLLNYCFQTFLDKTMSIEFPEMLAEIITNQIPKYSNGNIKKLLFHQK
Description: Binding Buffer: TEGM (10 mM Tris-HCl, 1 mM EDTA, 10% glycerol, 1 mM beta-mecaptoethanol, 10 mM Sodium Molybdate, pH 7.2)
Dexmethasone-methyl-^3H, (DEX*); (Amersham cat# TRK645) Dexamethasone(DEX) (Sigma, cat# D1756):
Cells (Hall R. E., et al., European Journal of Cancer, 30A: 484-490 (1994)) HeLa (ATCC) cultured in RPMI 1640 (Gibco 11835-055) containing 20 mM Hepes, 4 mM L-glu, 10 ug/ml of human insulin (Sigma, I-0259), 10% FBS and 20 ug/ml of Gentamicin (Gibco#15710-072) are rinsed twice in PBS. Phenol red-free Trypsin-EDTA is diluted in the same PBS 1:10. The cell layers are rinsed with 1× Trypsin, extra Trypsin is poured out, and the cell layers are incubated at 37° C. for ˜2 min. The flask is tapped and checked for signs of cell detachment. Once the cells begin to slide off the flask, the complete media is added. The cells are counted at this point, then diluted to the appropriate concentration and split into flasks or dishes for further culturing (Usually 1:3 to 1:6 dilution).
When the cells are 70 to 85% confluent, they are detached as described above, and collected by centrifuging at 1000 g for 10 minutes at 4° C. The cell pellet is washed twice with TEGM (10 mM Tris-HCl, 1 mM EDTA, 10% glycerol, 1 mM beta-mercaptoethanol, 10 mM Sodium Molybdate, pH 7.2). After the final wash, the cells are resuspended in TEGM at a concentration of 10^7 cells/mL. The cell suspension is snap frozen in liquid nitrogen or ethanol/dry ice bath and transferred to −80° C. freezer on dry ice. Before setting up the binding assay, the frozen samples are left on ice-water to just thaw (˜1 hr). Then the samples are centrifuged at 12,500 g to 20,000 g for 30 min at 4° C. The supernatant is used to set-up assay right away. If using 50 μL of supernatant, the test compound can be prepared in 50 μL of the TEGM buffer.
1×TEGM buffer is prepared, and the isotope-containing assay mixture is prepared in the following order: EtOH (2% final concentration in reaction), ^3H-DEX (Amersham Biosciences) and 1×TEGM. [e.g. For 100 samples, 200 μL (100×2) of EtOH+4.25 μL of 1:10 ^3H—Dex stock+2300 μL (100×23) 1×TEGM]. The compound is serially diluted, e.g., if starting final conc. is 1 μM, and the compound is in 25 μL of solution, for duplicate samples, 75 μL of 4×1 μM solution is made and 3 μL of 100 μM is added to 72 μL of buffer, and 1:5 serial dilution.
25 μL, of 3H-DEX (6 nM) trace and 25 μL compound solution are first mixed together, followed by addition of 50 μL receptor solution. The reaction is gently mixed, spun briefly at about 200 rpm and incubated at 4° C. overnight. 100 μL of 50% HAP slurry is prepared and added to the incubated reaction which is then vortexed and incubated on ice for 5 to 10 minutes. The reaction mixture is vortexed twice more to resuspend HAP while incubating reaction. The samples in 96-well format are then washed in wash buffer using The FilterMate™ Universal Harvester plate washer (Packard). The washing process transfers HAP pellet containing ligand-bound expressed receptor to Unifilter-96 GF/B filter plate (Packard). The HAP pellet on the filter plate is incubated with 50 μL of MICROSCINT (Packard) scintillint for 30 minutes before being counted on the TopCount microscintillation counter (Packard). IC50s are calculated using DEX as a reference.

Compared with C[C@]12Cc3cnn(-c4ccc(F)cc4)c3C=C1CC[C@@]2(CO)CC(O)C1CC1 (single isomer, unassigned) [Example 20a, 1-cyclopropyl-2-[(4αS)-1-(4-fluorophenyl)-5-(hydroxymethyl)-4α-methyl-1,4,4α,5,6,7-hexahydrocyclopenta[f]indazol-5-yl]ethanol], CC(C)C(O)C[C@]1(CO)CCC2=Cc3c(cnn3-c3ccc(F)cc3)C[C@@]21C (single isomer, unassigned) [Example 14b] is 0.20 log units higher in pKi: 7.65 for the first, 7.85 for the second. The second binds more tightly here.

Cc1ccc(C(O)C[C@]2(CO)CCC3=Cc4c(cnn4-c4ccc(F)cc4)C[C@@]32C)nc1 (stereo partly drawn) [Example 16, 2-[(4αS,5R)-1-(4-fluorophenyl)-5-(hydroxymethyl)-4α-methyl-1,4,4α,5,6,7-hexahydrocyclopenta[f]indazol-5-yl]-1-(5-methylpyridin-2-yl)ethanol] and C[C@]12Cc3cnn(-c4ccc(F)cc4)c3C=C1CC[C@@]2(CO)CC(O)c1ccc(F)cn1 (single isomer, unassigned) [Example 22b] are within 0.2 log units of each other in pKi: 8.43 for the first, 8.29 for the second.

First: CC(O)(C[C@]1(CO)CCC2=Cc3c(cnn3-c3ccc(F)cc3)C[C@@]21C)c1cccnc1 (single isomer, unassigned) [Example 25a]
Second: C[C@]12Cc3cnn(-c4ccc(F)cc4)c3C=C1CC[C@@]2(CO)CC(O)c1cccnc1 (single isomer, unassigned) [Example 15a]
The pKi of the first is 0.42 log units lower: 7.58 for the first, 8.00 for the second.

Compared with C[C@]12Cc3cnn(-c4ccc(F)cc4)c3C=C1CC[C@@]2(CO)CC(O)c1ccccc1 (single isomer, unassigned) [Example 13b], C[C@]12Cc3cnn(-c4ccc(F)cc4)c3C=C1CC[C@@]2(CO)CC(O)c1ccccc1F (stereo partly drawn) [Example 4, 1-(2-fluorophenyl)-2-[(4αS,5R)-1-(4-fluorophenyl)-5-(hydroxymethyl)-4α-methyl-1,4,4α,5,6,7-hexahydrocyclopenta[f]indazol-5-yl]ethanol] is 0.33 log units higher in pKi: 8.72 for the first, 9.05 for the second. The second binds more tightly here.

Going from C[C@]12Cc3cnn(-c4ccc(F)cc4)c3C=C1CC[C@@]2(CO)CC(O)c1cccc(C(F)(F)F)c1 (single isomer, unassigned) [Example 7a] to C[C@]12Cc3cnn(-c4ccc(F)cc4)c3C=C1CC[C@@]2(CO)CC(O)c1ccccc1 (single isomer, unassigned) [Example 13a], the pKi falls from 9.22 to 8.60 (0.62 log units).

Compared with C[C@]12Cc3cnn(-c4ccc(F)cc4)c3C=C1CC[C@@]2(CO)CC(O)c1ccccn1 (single isomer, unassigned) [Example 1a], C[C@]12Cc3cnn(-c4cccc(F)c4)c3C=C1CC[C@@]2(CO)CC(O)c1ccccn1 (single isomer, unassigned) [Example 19b] is 0.23 log units lower in pKi: 8.28 for the first, 8.05 for the second. The first binds more tightly here.

Going from C[C@]12Cc3cnn(-c4ccc(F)cc4)c3C=C1CC[C@@]2(CO)CC(O)c1cc(F)cc(Cl)c1 (single isomer, unassigned) [Example 6b] to C[C@]12Cc3cnn(-c4ccc(F)cc4)c3C=C1CC[C@@]2(CO)CC(O)c1cc(F)cc(F)c1 (stereo partly drawn) [Example 9, 1-(3,5-difluorophenyl)-2-[(4αS,5R)-1-(4-fluorophenyl)-5-(hydroxymethyl)-4α-methyl-1,4,4α,5,6,7-hexahydrocyclopenta[f]indazol-5-yl]ethanol], the pKi falls from 8.89 to 8.68 (0.21 log units).

Compared with C[C@]12Cc3cnn(-c4ccc(F)cc4)c3C=C1CC[C@@]2(CO)CC(O)C(F)(F)F (single isomer, unassigned) [Example 28b], C[C@]12Cc3cnn(-c4ccc(F)cc4)c3C=C1CC[C@@]2(CO)CC(O)c1cc(F)cc(Cl)c1 (single isomer, unassigned) [Example 6a] is 0.69 log units higher in pKi: 8.27 for the first, 8.96 for the second.

COc1cccnc1C(O)C[C@]1(CO)CCC2=Cc3c(cnn3-c3ccc(F)cc3)C[C@@]21C (single isomer, unassigned) [Example 21a] and COc1cccnc1C(O)C[C@]1(CO)CCC2=Cc3c(cnn3-c3cccc(F)c3)C[C@@]21C (single isomer, unassigned) [Example 26a] are within 0.2 log units of each other in pKi: 8.12 for the first, 8.07 for the second.

C[C@]12Cc3cnn(-c4ccc(F)cc4)c3C=C1CC[C@@]2(CO)CC1OC(=O)c2ccccc21 (single isomer, unassigned) [Example 12a] and Cc1ccc(C(O)C[C@]2(CO)CCC3=Cc4c(cnn4-c4ccc(F)cc4)C[C@@]32C)cc1 (single isomer, unassigned) [Example 2b] are within 0.2 log units of each other in pKi: 8.59 for the first, 8.68 for the second.

First: CC(O)(C[C@]1(CO)CCC2=Cc3c(cnn3-c3ccc(F)cc3)C[C@@]21C)c1cccnc1 (single isomer, unassigned) [Example 25b]
Second: C[C@]12Cc3cnn(-c4ccc(F)cc4)c3C=C1CC[C@@]2(CO)CC1OC(=O)c2ccccc21 (single isomer, unassigned) [Example 12b]
The pKi of the first is 1.16 log units lower: 7.66 for the first, 8.82 for the second.

Compound C[C@]12Cc3cnn(-c4cccc(F)c4)c3C=C1CC[C@@]2(CO)CC(O)c1ccccn1 (single isomer, unassigned) [Example 19a] has a pKi of 8.43.
